Among the data in publication PMC4774911, “Biochemical Screening of Five Protein Kinases from Plasmodium falciparum against 14,000 Cell-Active Compounds” (PLoS ONE, 2016) are Kd values, retold here.

Targets include CAMK2G (Homo sapiens, UniProt Q13555); PRKCA (Homo sapiens, UniProt P17252); ERN1 (Homo sapiens, UniProt O75460); PIM1 (Homo sapiens, UniProt P11309).
Assay in all cases: biochemical
Common to all, as to parameters: endogenous in cells; host or cells: K562 cell extract; species or system K562 (extract); replicate k of n = 2 (each experiment ID is one independent experiment; two experiment IDs per compound)
Common to all, as to settings: read-out: KDapp

A further assay deals with T1, BMPR2 (Homo sapiens, UniProt Q13873).
T1 sequence (Q13873 1-1038): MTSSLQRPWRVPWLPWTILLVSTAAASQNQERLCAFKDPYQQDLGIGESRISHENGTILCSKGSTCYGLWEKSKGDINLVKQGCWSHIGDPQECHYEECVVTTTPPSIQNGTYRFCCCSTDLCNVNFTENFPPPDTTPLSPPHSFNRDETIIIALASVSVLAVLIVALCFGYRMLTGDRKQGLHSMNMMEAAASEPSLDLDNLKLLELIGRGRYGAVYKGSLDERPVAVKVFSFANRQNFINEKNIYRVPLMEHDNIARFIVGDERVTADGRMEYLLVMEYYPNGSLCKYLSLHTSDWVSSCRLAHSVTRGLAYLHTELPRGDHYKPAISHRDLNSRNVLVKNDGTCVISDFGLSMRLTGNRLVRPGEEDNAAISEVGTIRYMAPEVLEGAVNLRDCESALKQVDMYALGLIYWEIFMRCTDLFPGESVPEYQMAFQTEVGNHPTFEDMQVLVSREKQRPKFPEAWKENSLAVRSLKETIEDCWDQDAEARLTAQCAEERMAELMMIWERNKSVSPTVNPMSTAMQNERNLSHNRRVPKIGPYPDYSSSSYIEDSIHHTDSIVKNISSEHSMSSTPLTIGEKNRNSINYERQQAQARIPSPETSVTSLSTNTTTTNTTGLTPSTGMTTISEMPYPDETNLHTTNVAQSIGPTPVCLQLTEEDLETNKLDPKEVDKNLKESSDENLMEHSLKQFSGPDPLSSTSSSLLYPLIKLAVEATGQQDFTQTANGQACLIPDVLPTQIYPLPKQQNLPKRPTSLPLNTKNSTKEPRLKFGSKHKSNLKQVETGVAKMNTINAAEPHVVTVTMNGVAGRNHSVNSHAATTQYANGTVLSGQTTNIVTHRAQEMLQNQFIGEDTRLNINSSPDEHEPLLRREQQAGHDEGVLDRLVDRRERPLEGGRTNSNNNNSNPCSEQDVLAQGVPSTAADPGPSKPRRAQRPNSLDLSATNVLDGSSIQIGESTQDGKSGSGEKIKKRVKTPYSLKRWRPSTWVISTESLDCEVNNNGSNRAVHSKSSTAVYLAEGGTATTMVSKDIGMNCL

In a further assay the target is T2, TAOK3 (Homo sapiens, UniProt Q9H2K8).
T2 sequence (Q9H2K8 1-898): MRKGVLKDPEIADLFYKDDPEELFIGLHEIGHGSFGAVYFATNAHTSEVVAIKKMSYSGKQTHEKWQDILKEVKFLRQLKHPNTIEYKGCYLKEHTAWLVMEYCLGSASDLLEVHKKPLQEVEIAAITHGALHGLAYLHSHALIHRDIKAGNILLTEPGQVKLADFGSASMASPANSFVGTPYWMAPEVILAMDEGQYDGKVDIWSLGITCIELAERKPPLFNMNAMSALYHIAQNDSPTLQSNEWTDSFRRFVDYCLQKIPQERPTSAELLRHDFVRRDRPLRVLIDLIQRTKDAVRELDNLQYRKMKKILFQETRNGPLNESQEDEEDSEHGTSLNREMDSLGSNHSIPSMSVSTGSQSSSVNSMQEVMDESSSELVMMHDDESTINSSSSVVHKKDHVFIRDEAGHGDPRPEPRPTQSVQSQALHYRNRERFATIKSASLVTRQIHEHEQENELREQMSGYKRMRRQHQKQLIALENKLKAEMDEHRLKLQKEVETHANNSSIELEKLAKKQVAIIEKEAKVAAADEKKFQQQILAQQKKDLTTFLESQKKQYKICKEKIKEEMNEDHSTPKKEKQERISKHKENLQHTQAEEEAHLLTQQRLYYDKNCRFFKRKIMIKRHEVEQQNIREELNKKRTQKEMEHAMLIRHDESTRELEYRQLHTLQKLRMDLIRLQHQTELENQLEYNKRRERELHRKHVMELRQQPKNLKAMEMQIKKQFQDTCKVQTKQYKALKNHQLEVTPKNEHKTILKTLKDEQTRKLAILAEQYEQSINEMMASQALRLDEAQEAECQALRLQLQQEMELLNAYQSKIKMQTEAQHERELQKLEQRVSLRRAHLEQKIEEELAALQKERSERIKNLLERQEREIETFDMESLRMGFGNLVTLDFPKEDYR

Values joined by “and” are separate entries in the source; they are usually repeats but may differ in a detail not shown here. Equal values may be shown once.

CAMK2G, sequence (Q13555 whole entry): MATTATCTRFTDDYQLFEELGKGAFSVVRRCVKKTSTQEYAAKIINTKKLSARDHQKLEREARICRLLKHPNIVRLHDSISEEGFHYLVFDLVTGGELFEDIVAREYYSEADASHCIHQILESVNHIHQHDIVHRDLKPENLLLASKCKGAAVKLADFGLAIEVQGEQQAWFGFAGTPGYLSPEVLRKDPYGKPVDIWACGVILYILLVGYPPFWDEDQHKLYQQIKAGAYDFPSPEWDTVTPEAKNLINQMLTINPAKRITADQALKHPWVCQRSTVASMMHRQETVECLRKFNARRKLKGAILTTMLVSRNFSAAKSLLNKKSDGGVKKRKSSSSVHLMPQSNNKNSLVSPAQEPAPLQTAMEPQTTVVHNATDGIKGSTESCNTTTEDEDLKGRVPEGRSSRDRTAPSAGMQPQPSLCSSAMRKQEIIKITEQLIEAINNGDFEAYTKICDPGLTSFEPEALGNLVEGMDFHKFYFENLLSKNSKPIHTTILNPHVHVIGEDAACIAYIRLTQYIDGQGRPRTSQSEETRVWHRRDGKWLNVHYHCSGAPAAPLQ
PIM1, sequence (P11309 whole entry): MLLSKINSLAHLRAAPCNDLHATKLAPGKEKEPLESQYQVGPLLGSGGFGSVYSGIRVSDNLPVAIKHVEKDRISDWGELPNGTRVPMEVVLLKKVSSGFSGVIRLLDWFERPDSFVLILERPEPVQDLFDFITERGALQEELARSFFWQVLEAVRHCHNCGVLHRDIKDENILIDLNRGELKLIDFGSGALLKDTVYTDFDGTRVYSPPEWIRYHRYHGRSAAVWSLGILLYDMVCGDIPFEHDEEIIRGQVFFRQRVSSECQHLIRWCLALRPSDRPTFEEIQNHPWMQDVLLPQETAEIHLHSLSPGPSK
ERN1, sequence (O75460 whole entry): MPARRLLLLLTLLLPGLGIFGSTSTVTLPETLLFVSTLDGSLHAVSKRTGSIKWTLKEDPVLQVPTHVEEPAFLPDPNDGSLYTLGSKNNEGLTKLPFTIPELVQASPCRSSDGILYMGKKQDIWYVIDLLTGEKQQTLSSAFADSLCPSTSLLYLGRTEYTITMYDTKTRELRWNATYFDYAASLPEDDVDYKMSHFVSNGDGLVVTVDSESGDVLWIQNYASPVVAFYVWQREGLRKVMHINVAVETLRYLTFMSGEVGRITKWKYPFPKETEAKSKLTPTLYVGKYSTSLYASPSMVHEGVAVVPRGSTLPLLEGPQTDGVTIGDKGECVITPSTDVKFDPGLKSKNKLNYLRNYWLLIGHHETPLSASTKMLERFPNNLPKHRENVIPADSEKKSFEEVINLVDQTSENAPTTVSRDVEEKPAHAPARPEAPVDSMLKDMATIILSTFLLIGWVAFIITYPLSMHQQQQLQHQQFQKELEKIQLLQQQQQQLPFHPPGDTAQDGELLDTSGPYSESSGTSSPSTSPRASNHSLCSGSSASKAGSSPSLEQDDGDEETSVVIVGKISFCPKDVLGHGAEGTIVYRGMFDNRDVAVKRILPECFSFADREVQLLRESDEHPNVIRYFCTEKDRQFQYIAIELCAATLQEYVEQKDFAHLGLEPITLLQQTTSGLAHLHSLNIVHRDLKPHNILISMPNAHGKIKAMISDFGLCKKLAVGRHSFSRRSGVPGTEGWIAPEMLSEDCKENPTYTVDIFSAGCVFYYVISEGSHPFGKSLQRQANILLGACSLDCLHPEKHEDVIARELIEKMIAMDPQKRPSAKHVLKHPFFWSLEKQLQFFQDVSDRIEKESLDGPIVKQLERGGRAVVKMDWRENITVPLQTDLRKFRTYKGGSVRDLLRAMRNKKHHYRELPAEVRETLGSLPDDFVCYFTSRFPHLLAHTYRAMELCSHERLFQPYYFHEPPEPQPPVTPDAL

For `CN1CCN(c2ccc(Nc3ncc(C#N)c(Nc4ccccc4C(N)=O)n3)cc2)CC1.Cl` [TCMDC-134116], the Kd was 0.34 µM and 0.294 µM on CAMK2G; 0.393 µM at PRKCA; 3.47 µM and 4.75 µM at BMPR2; 0.127 µM at ERN1; 3.56 µM and 2.97 µM at PIM1.
In the case of `Cl.NCC1(c2nc(-c3ccc(Cl)c(O)c3)c(-c3ccncc3)[nH]2)CCCCC1` [TCMDC-141154], the Kd on TAOK3 was 1.19 µM and 0.603 µM.
